According to patent US12544463B2, “Deuterium substituted positron emission tomography (PET) imaging agents and their pharmacological application” (Five Eleven Pharma Inc., priority 2017, dated 2026):

What was measured:
[1] = target: T1, serotonin transporters (SERT) (Rattus norvegicus, UniProt P31652); experiment: In vitro binding assay, LLC-SERT membrane homogenates, [^125I]IDAM; details: for Ki: 0.2 nM [^125I]IDAM, LLC-SERT membranes, read-out: Ki (SERT binding affinity) (converted)
T1 construct: expressed in transfected cells; host or cells: LLC-PK1 (LLC-SERT)
T1 sequence (P31652 whole entry): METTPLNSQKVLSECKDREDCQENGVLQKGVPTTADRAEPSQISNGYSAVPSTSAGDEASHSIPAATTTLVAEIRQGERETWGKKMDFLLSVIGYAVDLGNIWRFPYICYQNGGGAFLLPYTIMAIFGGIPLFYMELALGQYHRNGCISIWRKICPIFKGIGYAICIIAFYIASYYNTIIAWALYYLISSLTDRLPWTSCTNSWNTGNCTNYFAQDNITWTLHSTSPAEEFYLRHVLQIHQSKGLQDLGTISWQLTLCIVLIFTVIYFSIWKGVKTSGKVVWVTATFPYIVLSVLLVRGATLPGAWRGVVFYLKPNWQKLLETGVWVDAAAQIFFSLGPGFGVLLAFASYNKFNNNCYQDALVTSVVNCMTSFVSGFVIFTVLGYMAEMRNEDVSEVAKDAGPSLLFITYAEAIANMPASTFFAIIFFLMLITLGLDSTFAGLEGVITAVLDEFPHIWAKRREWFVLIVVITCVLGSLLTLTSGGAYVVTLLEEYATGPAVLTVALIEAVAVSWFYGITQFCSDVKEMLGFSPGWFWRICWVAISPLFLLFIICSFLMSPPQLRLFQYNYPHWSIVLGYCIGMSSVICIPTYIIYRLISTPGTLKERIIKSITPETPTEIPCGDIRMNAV
Procedure: The membrane homogenates of serotonin transporters (LLC-SERT, which were expressed in a common parental cell line LLC-PK1) were prepared and used for the binding assays. Competitive binding assays were performed in a final volume of 0.25 mL. […] Nonspecific binding was defined with 10 μM citalopram. Incubation was carried out for 60 min at room temperature and the bound ligand was collected on glass fiber filters presoaked with 1% polyethylenimine (SIGMA, St. Louis, MO) and counted in a gamma counter (Wizard^2, Perkin Elmer).

[2] = Biodistribution in rats of ^18F-III-3 (^18F-FPBM-D12); assay type: in vivo, rat; details: for Biodistribution Blood / Biodistribution Bone / Biodistribution Brain / Biodistribution Heart / Biodistribution Kidney / Biodistribution Liver / Biodistribution Lung / Biodistribution Muscle / Biodistribution Pancreas / Biodistribution Skin / Biodistribution Spleen: normal rats, i.v.
Procedure: (§1) Three rats per group were used for each biodistribution study. While under isoflurane anesthesia, 0.2 mL of a saline solution containing 20 μCi of radioactive tracer was injected into the femoral vein. The rats were sacrificed at the time indicated by cardiac excision while under isoflurane anesthesia. Organs of interest were removed and weighed, and the radioactivity was counted. The percent dose per organ was calculated by comparing the tissue counts to counts of 1% of the initial dose (100 times diluted aliquots of the injected material) measured at the same time. Regional brain distribution in rats was measured after an iv injection of the radioactive tracer. Samples from different brain regions [cortex, striatum, hippocampus, cerebellum and hypothalamus] were dissected, weighed and counted. The percentage dose/g of each sample was calculated by comparing sample counts with the counts of the diluted initial dose described above. The ratio was calculated by dividing the percentage dose/g of each region by that of the cerebellum. The cerebellum was used as the reference region for calculating the ratio of target to non-target binding, because only a trace amount of SERT is present in the cerebellum.

SERT = target: T2, SERT (Rattus norvegicus, UniProt P31652); experiment: Region to cerebellum ratio in rats, ^18F-III-3; assay type: in vivo; details: normal rats, i.v.
T2 construct: host or cells: live rats, dissected brain regions
T2 sequence (P31652 whole entry): as above
Procedure: as §1

Q: For `NCc1cc(OCCCF)ccc1Sc1ccccc1N` [III-5-5], which Ki [1] is on record?
A: The Ki was 39.3 ± 11.9 nM.

Q: For `CN(C)Cc1cc(O)ccc1Sc1ccc(F)cc1N` [III-4-19], which Ki [1] is on record?
A: Its Ki is 0.22 nM.

Q: Which “Biodistribution Blood” value ([2]; 2 min) does the source give for `[2H]C([2H])([2H])N(Cc1cc(OC([2H])([2H])C([2H])([2H])C([2H])([2H])[18F])ccc1Sc1ccccc1N)C([2H])([2H])[2H]` [^18F-III-3 (^18F-FPBM-D12)] here?
A: Its value is 0.25 ± 0.04 % Dose/g.

Q: What about the “Biodistribution Bone” value ([2]; 2 min) of the same compound?
A: Its value is 0.35 ± 0.06 % Dose/g.

Q: What about the “Biodistribution Brain” value ([2]; 2 min) of the same compound?
A: The value was 1.09 ± 0.06 % Dose/g.

Q: What about the “Biodistribution Heart” value ([2]; 2 min) of the same compound?
A: The value was 1.19 ± 0.18 % Dose/g.

Q: And the “Biodistribution Kidney” value ([2]; 2 min)?
A: Its value is 3.02 ± 0.16 % Dose/g.

Q: What about the “Biodistribution Liver” value ([2]; 2 min) of the same compound?
A: The value was 0.74 ± 0.16 % Dose/g.

Q: What about the “Biodistribution Lung” value ([2]; 2 min) of the same compound?
A: Its value is 9.56 ± 2.29 % Dose/g.

Q: What about the “Biodistribution Muscle” value ([2]; 2 min) of the same compound?
A: The value was 0.14 ± 0.02 % Dose/g.

Q: And the “Biodistribution Pancreas” value ([2]; 2 min)?
A: Its value is 1.13 ± 0.02 % Dose/g.

Q: What about the “Biodistribution Skin” value ([2]; 2 min) of the same compound?
A: Its value is 0.22 ± 0.04 % Dose/g.

Q: What about the “Biodistribution Spleen” value ([2]; 2 min) of the same compound?
A: Its value is 1.48 ± 0.31 % Dose/g.

Q: And the “Biodistribution Blood” value ([2]; 30 min)?
A: The value was 0.16 ± 0.03 % Dose/g.

Q: And the “Biodistribution Bone” value ([2]; 30 min)?
A: The value was 0.19 ± 0.01 % Dose/g.

Q: What about the “Biodistribution Brain” value ([2]; 30 min) of the same compound?
A: The value was 0.81 ± 0.04 % Dose/g.

Q: What about the “Biodistribution Heart” value ([2]; 30 min) of the same compound?
A: The value was 0.18 ± 0.02 % Dose/g.

Q: And the “Biodistribution Kidney” value ([2]; 30 min)?
A: Its value is 1.79 ± 0.38 % Dose/g.

Q: What about the “Biodistribution Liver” value ([2]; 30 min) of the same compound?
A: The value was 0.30 ± 0.05 % Dose/g.

Q: What about the “Biodistribution Lung” value ([2]; 30 min) of the same compound?
A: The value was 1.86 ± 0.42 % Dose/g.

Q: And the “Biodistribution Muscle” value ([2]; 30 min)?
A: Its value is 0.09 ± 0.02 % Dose/g.

Q: What about the “Biodistribution Pancreas” value ([2]; 30 min) of the same compound?
A: The value was 0.27 ± 0.06 % Dose/g.

Q: And the “Biodistribution Skin” value ([2]; 30 min)?
A: The value was 0.19 ± 0.03 % Dose/g.

Q: What about the “Biodistribution Spleen” value ([2]; 30 min) of the same compound?
A: Its value is 0.88 ± 0.05 % Dose/g.

Q: And the “Biodistribution Blood” value ([2]; 60 min)?
A: Its value is 0.10 ± 0.02 % Dose/g.

Q: And the “Biodistribution Bone” value ([2]; 60 min)?
A: Its value is 0.16 ± 0.02 % Dose/g.

Q: And the “Biodistribution Brain” value ([2]; 60 min)?
A: Its value is 0.54 ± 0.05 % Dose/g.

Q: What about the “Biodistribution Heart” value ([2]; 60 min) of the same compound?
A: The value was 0.09 ± 0.01 % Dose/g.

Q: What about the “Biodistribution Kidney” value ([2]; 60 min) of the same compound?
A: The value was 1.29 ± 0.29 % Dose/g.

Q: What about the “Biodistribution Liver” value ([2]; 60 min) of the same compound?
A: Its value is 0.22 ± 0.02 % Dose/g.

Q: And the “Biodistribution Lung” value ([2]; 60 min)?
A: The value was 0.85 ± 0.11 % Dose/g.

Q: What about the “Biodistribution Muscle” value ([2]; 60 min) of the same compound?
A: The value was 0.07 ± 0.01 % Dose/g.

Q: And the “Biodistribution Pancreas” value ([2]; 60 min)?
A: Its value is 0.19 ± 0.02 % Dose/g.

Q: What about the “Biodistribution Skin” value ([2]; 60 min) of the same compound?
A: The value was 0.16 ± 0.01 % Dose/g.

Q: And the “Biodistribution Spleen” value ([2]; 60 min)?
A: The value was 0.46 ± 0.10 % Dose/g.

Q: What about the “Biodistribution Blood” value ([2]; 120 min) of the same compound?
A: The value was 0.06 ± 0.00 % Dose/g.

Q: And the “Biodistribution Bone” value ([2]; 120 min)?
A: The value was 0.13 ± 0.01 % Dose/g.

Q: What about the “Biodistribution Brain” value ([2]; 120 min) of the same compound?
A: Its value is 0.31 ± 0.03 % Dose/g.

Q: And the “Biodistribution Heart” value ([2]; 120 min)?
A: The value was 0.05 ± 0.01 % Dose/g.

Q: What about the “Biodistribution Kidney” value ([2]; 120 min) of the same compound?
A: Its value is 0.83 ± 0.39 % Dose/g.

Q: And the “Biodistribution Liver” value ([2]; 120 min)?
A: The value was 0.16 ± 0.01 % Dose/g.

Q: What about the “Biodistribution Lung” value ([2]; 120 min) of the same compound?
A: The value was 0.45 ± 0.10 % Dose/g.

Q: What about the “Biodistribution Muscle” value ([2]; 120 min) of the same compound?
A: The value was 0.03 ± 0.01 % Dose/g.

Q: And the “Biodistribution Pancreas” value ([2]; 120 min)?
A: The value was 0.13 ± 0.07 % Dose/g.

Q: And the “Biodistribution Skin” value ([2]; 120 min)?
A: Its value is 0.10 ± 0.02 % Dose/g.

Q: What about the “Biodistribution Spleen” value ([2]; 120 min) of the same compound?
A: Its value is 0.21 ± 0.04 % Dose/g.

Q: And the “blood-brain-barrier penetration” value ([2]; rats, after i.v. injection)?
A: Its value is “penetrated the blood-brain-barrier”.

Q: And the “Region to Cerebellum Ratio: Cerebellum” value (SERT; 2 min)?
A: The value was 1.00 ± 0.00.

Q: And the “Region to Cerebellum Ratio: Cortex” value (SERT; 2 min)?
A: Its value is 1.44 ± 0.27.

Q: And the “Region to Cerebellum Ratio: Hippocampus” value (SERT; 2 min)?
A: Its value is 0.97 ± 0.13.

Q: And the “Region to Cerebellum Ratio: Hypothalamus” value (SERT; 2 min)?
A: Its value is 1.17 ± 0.21.

Q: And the “Region to Cerebellum Ratio: Remainder” value (SERT; 2 min)?
A: Its value is 1.21 ± 0.13.

Q: And the “Region to Cerebellum Ratio: Striatum” value (SERT; 2 min)?
A: The value was 1.15 ± 0.18.

Q: What about the “Region to Cerebellum Ratio: Cerebellum” value (SERT; 30 min) of the same compound?
A: The value was 1.00 ± 0.00.

Q: And the “Region to Cerebellum Ratio: Cortex” value (SERT; 30 min)?
A: Its value is 1.81 ± 0.30.

Q: What about the “Region to Cerebellum Ratio: Hippocampus” value (SERT; 30 min) of the same compound?
A: Its value is 2.04 ± 0.27.

Q: What about the “Region to Cerebellum Ratio: Hypothalamus” value (SERT; 30 min) of the same compound?
A: The value was 2.99 ± 0.46.

Q: What about the “Region to Cerebellum Ratio: Remainder” value (SERT; 30 min) of the same compound?
A: The value was 2.42 ± 0.13.

Q: And the “Region to Cerebellum Ratio: Striatum” value (SERT; 30 min)?
A: Its value is 2.43 ± 0.38.

Q: And the “Region to Cerebellum Ratio: Cerebellum” value (SERT; 60 min)?
A: The value was 1.00 ± 0.00.

Q: And the “Region to Cerebellum Ratio: Cortex” value (SERT; 60 min)?
A: Its value is 2.68 ± 0.35.

Q: What about the “Region to Cerebellum Ratio: Hippocampus” value (SERT; 60 min) of the same compound?
A: The value was 3.45 ± 0.42.

Q: And the “Region to Cerebellum Ratio: Hypothalamus” value (SERT; 60 min)?
A: Its value is 5.32 ± 0.45.

Q: What about the “Region to Cerebellum Ratio: Remainder” value (SERT; 60 min) of the same compound?
A: The value was 3.77 ± 0.43.

Q: What about the “Region to Cerebellum Ratio: Striatum” value (SERT; 60 min) of the same compound?
A: The value was 3.96 ± 0.62.

Q: And the “Region to Cerebellum Ratio: Cerebellum” value (SERT; 120 min)?
A: Its value is 1.00 ± 0.00.

Q: And the “Region to Cerebellum Ratio: Cortex” value (SERT; 120 min)?
A: The value was 2.67 ± 0.50.

Q: What about the “Region to Cerebellum Ratio: Hippocampus” value (SERT; 120 min) of the same compound?
A: The value was 3.85 ± 0.28.

Q: What about the “Region to Cerebellum Ratio: Hypothalamus” value (SERT; 120 min) of the same compound?
A: Its value is 7.55 ± 0.82.

Q: And the “Region to Cerebellum Ratio: Remainder” value (SERT; 120 min)?
A: The value was 4.74 ± 0.71.

Q: What about the “Region to Cerebellum Ratio: Striatum” value (SERT; 120 min) of the same compound?
A: The value was 4.69 ± 1.26.

Q: For `[2H]C([2H])([2H])N(Cc1cc(OC([2H])([2H])C([2H])([2H])C([2H])([2H])F)ccc1Sc1ccccc1N)C([2H])([2H])[2H]` (single isomer, unassigned) [III-3 (FPBM- D12)], which Ki [1] is on record?
A: The Ki was 0.086 ± 0.029 nM.

Q: Which Ki [1] does the source give for `[2H]C([2H])([2H])N(Cc1cc(OCCCF)ccc1Sc1ccccc1N)C([2H])([2H])[2H]` (single isomer, unassigned) [III-2] here?
A: Its Ki is 0.032 ± 0.013 nM.

Q: With `CN(C)Cc1cc(OCCCF)ccc1Sc1ccc(F)cc1N` as the compound, how does the Ki [1] read?
A: Its Ki is 0.022 ± 0.016 nM.

Q: With `CN(C)Cc1cc(OCCCF)ccc1Sc1ccccc1N` [III-1 (FPBM), reference compound] as the compound, how does the Ki [1] read?
A: The Ki was 0.052 ± 0.007 nM.

Q: For `CN(C)Cc1cc(O)ccc1Sc1ccccc1N` [III-1-1], which Ki [1] is on record?
A: Its Ki is 1.21 ± 0.15 nM.

Q: With `[2H]C([2H])(F)C([2H])([2H])C([2H])([2H])Oc1ccc(Sc2ccc(F)cc2N)c(CN(C)C)c1` [III-4-27] as the compound, how does the Ki [1] read?
A: The Ki was 0.024 nM.

Q: With `[2H]C([2H])(F)C([2H])([2H])C([2H])([2H])Oc1ccc(Sc2ccccc2N)c(CN(C)C)c1` (single isomer, unassigned) [III-4-2] as the compound, how does the Ki [1] read?
A: Its Ki is 0.14 ± 0.06 nM.

Q: With `CN(C)Cc1ccccc1Sc1ccc(I)cc1CO` [[^125I]IDAM, reference compound] as the compound, how does the Kd ([1]; value used in Cheng-Prusoff equation) read?
A: The Kd was 0.2 nM.
